Measured values reported in ChEMBL document CHEMBL3875162, “Synthesis and biological evaluation of new benzimidazole-thiazolidinedione hybrids as potential cytotoxic and apoptosis inducing agents” (Eur J Med Chem, 2016).

Assays:
[1] = Cytotoxicity against human PC3 cells assessed as cell growth inhibition after 48 hrs by MTT assay; assay type: functional, cell-based; conditions: PC-3, 48 h
[2] = Cytotoxicity against human DU145 cells assessed as cell growth inhibition after 48 hrs by MTT assay; assay type: functional, cell-based; conditions: DU-145, 48 h
[3] = Cytotoxicity against human MDA-MB-231 cells assessed as cell growth inhibition after 48 hrs by MTT assay; assay type: functional, cell-based; conditions: MDA-MB-231, 48 h
[4] = Cytotoxicity against human A549 cells assessed as cell growth inhibition after 48 hrs by MTT assay; assay type: functional, cell-based; conditions: A549, 48 h
[5] = Cytotoxicity against human MCF10A cells assessed as cell growth inhibition after 48 hrs by MTT assay; assay type: toxicity, cell-based, MCF-10A
A549 = test: Selectivity index, ratio of IC50 for human MCF10A cells to IC50 for human A549 cells; assay type: functional

SMILES	IC50 [1]	IC50 [2]	IC50 [3]	IC50 [4]	IC50 at 48 h [5]	Ratio IC50 (A549)
CCn1c(/C=C2\SC(=O)N(CC(=O)Nc3cc(C(C)(C)C)on3)C2=O)nc2ccccc21	> 50 µM	> 50 µM	> 50 µM	44.8 µM	–	–
CC(C)n1c(/C=C2\SC(=O)N(CC(=O)N3CCOCC3)C2=O)nc2ccccc21	> 50 µM	> 50 µM	> 50 µM	> 50 µM	–	–
COc1cc2c(cc1OC)CN(C(=O)CN1C(=O)S/C(=C\c3nc4ccccc4n3C)C1=O)CC2	41.1 µM	37.5 µM	36 µM	13.3 µM	> 100 µM	–
Cn1c(/C=C2\SC(=O)N(CC(=O)N3CCCCC3)C2=O)nc2ccccc21	> 50 µM	> 50 µM	> 50 µM	> 50 µM	–	–
CC(C)n1c(/C=C2\SC(=O)N(CC(=O)N3CCCC3)C2=O)nc2ccccc21	> 50 µM	> 50 µM	> 50 µM	> 50 µM	–	–
CCn1c(/C=C2\SC(=O)N(CC(=O)N3CCCC3)C2=O)nc2ccccc21	> 50 µM	45.1 µM	> 50 µM	31.2 µM	–	–
CC1CN(C(=O)CN2C(=O)S/C(=C\c3nc4ccccc4n3C(C)C)C2=O)CC(C)O1 (centres undefined)	> 50 µM	> 50 µM	> 50 µM	> 50 µM	–	–
CCn1c(/C=C2\SC(=O)N(CC(=O)N3CCCCC3)C2=O)nc2ccccc21	> 50 µM	> 50 µM	> 50 µM	> 50 µM	–	–
O=c1[nH]cc(F)c(=O)[nH]1 [FLUOROURACIL]	45.3 µM	40.6 µM	36 µM	30.5 µM	–	–
CC1CN(C(=O)CN2C(=O)S/C(=C\c3nc4ccccc4n3C)C2=O)CC(C)O1 (centres undefined)	> 50 µM	> 50 µM	> 50 µM	29.4 µM	–	–
Cn1c(/C=C2\SC(=O)N(CC(=O)N3CCCC3)C2=O)nc2ccccc21	> 50 µM	> 50 µM	> 50 µM	> 50 µM	–	–
CCn1c(/C=C2\SC(=O)N(CC(=O)Nc3nc(-c4ccccc4)cs3)C2=O)nc2ccccc21	> 50 µM	> 50 µM	> 50 µM	> 50 µM	–	–
CC(C)n1c(/C=C2\SC(=O)N(CC(=O)N3CCCCC3)C2=O)nc2ccccc21	> 50 µM	42.2 µM	> 50 µM	28.2 µM	–	–
CC(C)n1c(/C=C2\SC(=O)N(CC(=O)Nc3cc(C(C)(C)C)on3)C2=O)nc2ccccc21	> 50 µM	> 50 µM	> 50 µM	> 50 µM	–	–
Cn1c(/C=C2\SC(=O)N(CC(=O)Nc3cc(C(C)(C)C)on3)C2=O)nc2ccccc21	> 50 µM	31.4 µM	33.8 µM	15.3 µM	38.7 µM	2.5
COc1cc2c(cc1OC)CN(C(=O)CN1C(=O)S/C(=C\c3nc4ccccc4n3C(C)C)C1=O)CC2	> 50 µM	29.7 µM	30.6 µM	20.6 µM	> 100 µM	–
CCn1c(/C=C2\SC(=O)N(CC(=O)N3CCOCC3)C2=O)nc2ccccc21	> 50 µM	> 50 µM	> 50 µM	> 50 µM	–	–
CCn1c(/C=C2\SC(=O)N(CC(=O)N3CC(C)OC(C)C3)C2=O)nc2ccccc21 (centres undefined)	> 50 µM	> 50 µM	> 50 µM	> 50 µM	–	–
CCn1c(/C=C2\SC(=O)N(CC(=O)N3CCc4cc(OC)c(OC)cc4C3)C2=O)nc2ccccc21	33.5 µM	> 50 µM	> 50 µM	26.2 µM	–	–
Cn1c(/C=C2\SC(=O)N(CC(=O)N3CCOCC3)C2=O)nc2ccccc21	> 50 µM	41.1 µM	> 50 µM	38.5 µM	–	–
